Reference: ChEMBL document CHEMBL1765075, “Discovery and structure-activity relationship of 3-aminopyrid-2-ones as potent and selective interleukin-2 inducible T-cell kinase (Itk) inhibitors” (J Med Chem, 2011)

Legend:
[1] = biological target: T1, Receptor-type tyrosine-protein kinase FLT3 (Homo sapiens, UniProt P36888); assay: Inhibition of Flt3 after 20 mins by radiometric phosphate incorporation assay
T1 sequence (P36888 whole entry): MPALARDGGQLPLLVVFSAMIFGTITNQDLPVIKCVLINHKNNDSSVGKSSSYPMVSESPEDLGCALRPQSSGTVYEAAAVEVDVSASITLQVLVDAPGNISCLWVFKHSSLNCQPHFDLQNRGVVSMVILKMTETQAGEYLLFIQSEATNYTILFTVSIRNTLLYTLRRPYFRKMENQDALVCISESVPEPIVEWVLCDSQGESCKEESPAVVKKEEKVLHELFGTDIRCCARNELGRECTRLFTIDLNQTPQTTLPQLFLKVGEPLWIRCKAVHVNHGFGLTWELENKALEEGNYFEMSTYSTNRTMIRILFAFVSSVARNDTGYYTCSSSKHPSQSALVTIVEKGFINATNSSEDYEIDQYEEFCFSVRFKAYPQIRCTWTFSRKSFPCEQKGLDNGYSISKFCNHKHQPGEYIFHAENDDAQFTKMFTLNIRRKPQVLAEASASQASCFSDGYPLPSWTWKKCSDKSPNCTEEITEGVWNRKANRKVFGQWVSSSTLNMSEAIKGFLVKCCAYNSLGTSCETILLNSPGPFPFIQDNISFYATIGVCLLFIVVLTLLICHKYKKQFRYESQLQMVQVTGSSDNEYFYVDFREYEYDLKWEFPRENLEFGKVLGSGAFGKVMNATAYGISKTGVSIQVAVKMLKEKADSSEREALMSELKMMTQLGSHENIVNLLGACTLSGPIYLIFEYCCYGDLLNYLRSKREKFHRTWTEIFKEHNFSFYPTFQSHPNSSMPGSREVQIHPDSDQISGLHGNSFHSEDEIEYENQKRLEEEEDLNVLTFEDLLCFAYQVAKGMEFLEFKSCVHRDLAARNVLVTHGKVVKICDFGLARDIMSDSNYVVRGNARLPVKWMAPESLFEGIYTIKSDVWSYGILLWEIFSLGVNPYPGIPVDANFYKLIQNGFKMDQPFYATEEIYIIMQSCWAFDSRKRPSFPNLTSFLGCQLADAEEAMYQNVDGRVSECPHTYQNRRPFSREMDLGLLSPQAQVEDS

[2] = biological target: T2, Proto-oncogene tyrosine-protein kinase Src (Homo sapiens, UniProt P12931); assay: Inhibition of Src after 10 mins by radiometric phosphate incorporation assay
[3] = Permeability across basolateral to apical side of human Caco2 cells after 120 mins by LC-MS/MS analysis; type: ADME, cell-based; details: Caco-2, read-out: permeability
[4] = biological target: Mitogen-activated protein kinase 1 (Homo sapiens, UniProt P28482); assay: Inhibition of ERK2
[5] = biological target: Tyrosine-protein kinase Fyn (Homo sapiens, UniProt P06241); assay: Inhibition of FYN
[6] = Inhibition of RLK
[7] = biological target: Tyrosine-protein kinase ZAP-70 (Homo sapiens, UniProt P43403); assay: Inhibition of ZAP70
[8] = biological target: Protein kinase C theta type (Homo sapiens, UniProt Q04759); assay: Inhibition of PKCtheta
Aurora kinase A = Aurora kinase A (Homo sapiens, UniProt O14965); assay: Inhibition of AURORA A
[9] = biological target: Cytoplasmic tyrosine-protein kinase BMX (Homo sapiens, UniProt P51813); assay: Inhibition of BMX
[10] = biological target: Tyrosine-protein kinase BTK (Homo sapiens, UniProt Q06187); assay: Inhibition of BTK
[11] = biological target: Calcium/calmodulin-dependent protein kinase type 1D (Homo sapiens, UniProt Q8IU85); assay: Inhibition of CAMK1D
[12] = biological target: Calcium/calmodulin-dependent protein kinase type IV (Homo sapiens, UniProt Q16566); assay: Inhibition of CAMK4
[13] = biological target: Cyclin-dependent kinase 1 (Homo sapiens, UniProt P06493); assay: Inhibition of CDK1
[14] = biological target: Serine/threonine-protein kinase Chk1 (Homo sapiens, UniProt O14757); assay: Inhibition of CHK1
[15] = Inhibition of CK1
[16] = biological target: Mitogen-activated protein kinase kinase kinase 8 (Homo sapiens, UniProt P41279); assay: Inhibition of COT
[17] = biological target: Tyrosine-protein kinase CSK (Homo sapiens, UniProt P41240); assay: Inhibition of CSK
[18] = biological target: Dual specificity tyrosine-phosphorylation-regulated kinase 1A (Homo sapiens, UniProt Q13627); assay: Inhibition of DYRK1A
[19] = biological target: Fibroblast growth factor receptor 4 (Homo sapiens, UniProt P22455); assay: Inhibition of FGFR4
[20] = biological target: Macrophage colony-stimulating factor 1 receptor (Homo sapiens, UniProt P07333); assay: Inhibition of FMS
[21] = biological target: Glycogen synthase kinase-3 beta (Homo sapiens, UniProt P49841); assay: Inhibition of GSK3-beta
[22] = biological target: Tyrosine-protein kinase HCK (Homo sapiens, UniProt P08631); assay: Inhibition of HCK
Insulin receptor = Insulin receptor (Homo sapiens, UniProt P06213); assay: Inhibition of IR
[23] = biological target: Interleukin-1 receptor-associated kinase 4 (Homo sapiens, UniProt Q9NWZ3); assay: Inhibition of IRAK4
[24] = biological target: Tyrosine-protein kinase JAK2 (Homo sapiens, UniProt O60674); assay: Inhibition of JAK2
[25] = biological target: Tyrosine-protein kinase JAK3 (Homo sapiens, UniProt P52333); assay: Inhibition of JAK3
[26] = biological target: Vascular endothelial growth factor receptor 2 (Homo sapiens, UniProt P35968); assay: Inhibition of KDR
[27] = biological target: Mast/stem cell growth factor receptor Kit (Homo sapiens, UniProt P10721); assay: Inhibition of KIT
[28] = biological target: Dual specificity mitogen-activated protein kinase kinase 1 (Homo sapiens, UniProt Q02750); assay: Inhibition of MEK1
[29] = biological target: Protein kinase C beta type (Homo sapiens, UniProt P05771); assay: Inhibition of PKCbeta
[30] = biological target: Serine/threonine-protein kinase N2 (Homo sapiens, UniProt Q16513); assay: Inhibition of PRK2
[31] = biological target: Proto-oncogene tyrosine-protein kinase receptor Ret (Homo sapiens, UniProt P07949); assay: Inhibition of RET
[32] = biological target: Rho-associated protein kinase 2 (Homo sapiens, UniProt O75116); assay: Inhibition of ROCK2
[33] = biological target: Macrophage-stimulating protein receptor (Homo sapiens, UniProt Q04912); assay: Inhibition of RON
[34] = biological target: Ribosomal protein S6 kinase alpha-1 (Homo sapiens, UniProt Q15418); assay: Inhibition of RSK1
[35] = biological target: T2, Proto-oncogene tyrosine-protein kinase Src; assay: Inhibition of SRC
[36] = biological target: Mitogen-activated protein kinase kinase kinase 7 (Homo sapiens, UniProt O43318); assay: Inhibition of TAK1
Angiopoietin-1 receptor = Angiopoietin-1 receptor (Homo sapiens, UniProt Q02763); assay: Inhibition of TIE2
[37] = biological target: Tyrosine-protein kinase Yes (Homo sapiens, UniProt P07947); assay: Inhibition of YES

T2 sequence (P12931 2-536 limits assumed): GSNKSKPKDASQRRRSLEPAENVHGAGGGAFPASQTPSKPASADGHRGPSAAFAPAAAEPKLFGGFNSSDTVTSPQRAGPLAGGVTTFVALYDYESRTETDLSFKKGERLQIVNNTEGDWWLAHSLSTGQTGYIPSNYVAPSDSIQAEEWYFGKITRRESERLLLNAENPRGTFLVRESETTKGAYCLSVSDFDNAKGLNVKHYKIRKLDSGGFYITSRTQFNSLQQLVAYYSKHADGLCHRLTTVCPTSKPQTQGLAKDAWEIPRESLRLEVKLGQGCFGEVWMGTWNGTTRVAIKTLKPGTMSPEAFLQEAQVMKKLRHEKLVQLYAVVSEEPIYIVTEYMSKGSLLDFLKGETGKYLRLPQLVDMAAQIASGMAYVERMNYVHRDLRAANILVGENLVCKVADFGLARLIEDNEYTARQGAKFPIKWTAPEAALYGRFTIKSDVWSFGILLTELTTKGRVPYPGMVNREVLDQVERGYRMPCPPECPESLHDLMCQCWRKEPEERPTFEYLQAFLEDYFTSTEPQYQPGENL
Chain of Serine/threonine-protein kinase Chk1 (O14757 whole entry): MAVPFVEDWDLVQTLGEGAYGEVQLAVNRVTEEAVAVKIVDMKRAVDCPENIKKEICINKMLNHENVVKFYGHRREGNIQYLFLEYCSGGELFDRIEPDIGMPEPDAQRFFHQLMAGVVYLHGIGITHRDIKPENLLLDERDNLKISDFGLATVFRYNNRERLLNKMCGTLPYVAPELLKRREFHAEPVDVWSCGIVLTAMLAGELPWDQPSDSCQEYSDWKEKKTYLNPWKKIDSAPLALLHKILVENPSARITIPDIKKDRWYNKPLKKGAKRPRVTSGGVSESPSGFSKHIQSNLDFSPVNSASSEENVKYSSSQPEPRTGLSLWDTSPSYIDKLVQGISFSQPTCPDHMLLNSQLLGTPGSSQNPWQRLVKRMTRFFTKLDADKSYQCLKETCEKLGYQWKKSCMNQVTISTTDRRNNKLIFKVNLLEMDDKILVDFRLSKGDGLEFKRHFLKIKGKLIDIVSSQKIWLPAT
Chain of Cyclin-dependent kinase 1 (P06493 whole entry): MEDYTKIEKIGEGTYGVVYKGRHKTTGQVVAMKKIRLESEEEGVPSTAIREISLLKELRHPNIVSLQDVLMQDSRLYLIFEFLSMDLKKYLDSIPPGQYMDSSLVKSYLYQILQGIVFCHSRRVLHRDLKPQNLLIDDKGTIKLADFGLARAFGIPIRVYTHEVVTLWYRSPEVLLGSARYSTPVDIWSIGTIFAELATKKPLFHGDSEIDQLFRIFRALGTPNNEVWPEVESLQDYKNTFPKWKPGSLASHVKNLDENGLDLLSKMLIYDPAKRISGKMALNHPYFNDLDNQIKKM
Chain of Interleukin-1 receptor-associated kinase 4 (Q9NWZ3 whole entry): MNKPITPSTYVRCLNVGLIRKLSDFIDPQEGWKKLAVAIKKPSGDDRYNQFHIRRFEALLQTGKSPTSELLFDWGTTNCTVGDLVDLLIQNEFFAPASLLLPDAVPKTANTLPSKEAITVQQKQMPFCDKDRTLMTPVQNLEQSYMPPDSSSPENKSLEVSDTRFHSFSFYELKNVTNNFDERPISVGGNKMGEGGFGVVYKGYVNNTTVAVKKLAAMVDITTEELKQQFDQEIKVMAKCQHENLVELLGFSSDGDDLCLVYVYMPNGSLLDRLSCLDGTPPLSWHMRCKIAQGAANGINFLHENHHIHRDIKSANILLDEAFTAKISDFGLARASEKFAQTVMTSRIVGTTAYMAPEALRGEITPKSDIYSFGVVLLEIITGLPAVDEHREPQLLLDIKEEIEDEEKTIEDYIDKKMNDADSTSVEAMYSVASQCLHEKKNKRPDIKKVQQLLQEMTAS
Chain of Angiopoietin-1 receptor (Q02763 whole entry): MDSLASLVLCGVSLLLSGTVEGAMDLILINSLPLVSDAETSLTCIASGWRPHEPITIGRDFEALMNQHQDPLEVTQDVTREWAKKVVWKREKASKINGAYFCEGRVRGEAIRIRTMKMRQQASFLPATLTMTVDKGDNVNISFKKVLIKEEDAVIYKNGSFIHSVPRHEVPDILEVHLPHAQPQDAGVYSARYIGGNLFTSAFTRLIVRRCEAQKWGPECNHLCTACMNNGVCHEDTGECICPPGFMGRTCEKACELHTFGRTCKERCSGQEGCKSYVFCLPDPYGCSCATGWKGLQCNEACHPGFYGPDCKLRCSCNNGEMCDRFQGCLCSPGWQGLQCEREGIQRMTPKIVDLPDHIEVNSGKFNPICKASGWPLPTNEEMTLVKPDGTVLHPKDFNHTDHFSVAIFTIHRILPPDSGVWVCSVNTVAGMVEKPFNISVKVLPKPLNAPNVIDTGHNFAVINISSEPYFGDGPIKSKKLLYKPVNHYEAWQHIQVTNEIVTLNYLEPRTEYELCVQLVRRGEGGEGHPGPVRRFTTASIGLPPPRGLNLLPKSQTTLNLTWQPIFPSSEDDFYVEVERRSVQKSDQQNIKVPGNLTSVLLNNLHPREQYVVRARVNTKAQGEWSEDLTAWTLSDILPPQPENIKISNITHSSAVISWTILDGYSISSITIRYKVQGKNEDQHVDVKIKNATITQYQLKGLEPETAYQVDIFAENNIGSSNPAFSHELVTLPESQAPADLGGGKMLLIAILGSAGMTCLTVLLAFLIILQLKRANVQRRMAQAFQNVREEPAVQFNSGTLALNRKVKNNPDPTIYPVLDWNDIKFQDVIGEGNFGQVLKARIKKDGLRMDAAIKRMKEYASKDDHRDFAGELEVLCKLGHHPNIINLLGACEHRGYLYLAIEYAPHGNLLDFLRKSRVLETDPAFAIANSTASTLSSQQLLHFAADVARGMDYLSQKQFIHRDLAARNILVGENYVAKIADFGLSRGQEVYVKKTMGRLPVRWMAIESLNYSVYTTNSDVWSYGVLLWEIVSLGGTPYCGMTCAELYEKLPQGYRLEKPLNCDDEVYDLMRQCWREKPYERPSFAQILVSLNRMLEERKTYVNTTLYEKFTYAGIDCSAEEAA
Chain of Glycogen synthase kinase-3 beta (P49841 whole entry): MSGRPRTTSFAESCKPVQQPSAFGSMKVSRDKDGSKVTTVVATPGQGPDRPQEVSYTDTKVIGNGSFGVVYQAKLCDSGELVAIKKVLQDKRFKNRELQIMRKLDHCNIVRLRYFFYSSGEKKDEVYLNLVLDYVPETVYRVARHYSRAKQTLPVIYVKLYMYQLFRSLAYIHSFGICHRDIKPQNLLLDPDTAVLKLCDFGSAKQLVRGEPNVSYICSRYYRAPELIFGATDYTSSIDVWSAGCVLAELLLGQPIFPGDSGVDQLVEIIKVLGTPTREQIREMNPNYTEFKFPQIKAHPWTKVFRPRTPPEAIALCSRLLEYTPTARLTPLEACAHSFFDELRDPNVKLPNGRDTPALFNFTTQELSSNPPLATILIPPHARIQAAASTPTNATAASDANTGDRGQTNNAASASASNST
Chain of Macrophage colony-stimulating factor 1 receptor (P07333 whole entry, looked up): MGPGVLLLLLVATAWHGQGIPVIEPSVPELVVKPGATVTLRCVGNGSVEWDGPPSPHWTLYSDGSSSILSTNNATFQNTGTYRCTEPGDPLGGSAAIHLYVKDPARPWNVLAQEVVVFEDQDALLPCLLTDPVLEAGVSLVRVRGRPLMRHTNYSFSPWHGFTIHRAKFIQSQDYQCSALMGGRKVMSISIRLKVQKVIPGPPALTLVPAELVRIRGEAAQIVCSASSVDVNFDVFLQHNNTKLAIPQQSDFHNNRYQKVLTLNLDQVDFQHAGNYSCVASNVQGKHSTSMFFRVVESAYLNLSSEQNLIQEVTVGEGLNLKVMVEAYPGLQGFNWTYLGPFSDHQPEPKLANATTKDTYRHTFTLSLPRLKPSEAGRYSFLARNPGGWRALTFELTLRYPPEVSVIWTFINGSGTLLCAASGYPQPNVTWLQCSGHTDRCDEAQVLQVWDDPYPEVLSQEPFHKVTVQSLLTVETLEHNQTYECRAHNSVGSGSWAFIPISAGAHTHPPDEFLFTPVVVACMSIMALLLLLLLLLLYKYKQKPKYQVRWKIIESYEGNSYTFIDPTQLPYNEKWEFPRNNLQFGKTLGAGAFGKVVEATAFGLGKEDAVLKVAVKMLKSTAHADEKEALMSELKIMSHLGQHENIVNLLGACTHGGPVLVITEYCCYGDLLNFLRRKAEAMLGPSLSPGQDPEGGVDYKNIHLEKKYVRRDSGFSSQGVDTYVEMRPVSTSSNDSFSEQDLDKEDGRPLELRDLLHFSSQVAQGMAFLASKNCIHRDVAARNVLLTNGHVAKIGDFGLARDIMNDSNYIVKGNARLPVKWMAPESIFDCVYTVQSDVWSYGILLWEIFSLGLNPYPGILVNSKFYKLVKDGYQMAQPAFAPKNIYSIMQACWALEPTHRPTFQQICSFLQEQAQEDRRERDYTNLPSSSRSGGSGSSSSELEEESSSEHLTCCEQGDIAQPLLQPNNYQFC
Chain of Ribosomal protein S6 kinase alpha-1 (Q15418 whole entry): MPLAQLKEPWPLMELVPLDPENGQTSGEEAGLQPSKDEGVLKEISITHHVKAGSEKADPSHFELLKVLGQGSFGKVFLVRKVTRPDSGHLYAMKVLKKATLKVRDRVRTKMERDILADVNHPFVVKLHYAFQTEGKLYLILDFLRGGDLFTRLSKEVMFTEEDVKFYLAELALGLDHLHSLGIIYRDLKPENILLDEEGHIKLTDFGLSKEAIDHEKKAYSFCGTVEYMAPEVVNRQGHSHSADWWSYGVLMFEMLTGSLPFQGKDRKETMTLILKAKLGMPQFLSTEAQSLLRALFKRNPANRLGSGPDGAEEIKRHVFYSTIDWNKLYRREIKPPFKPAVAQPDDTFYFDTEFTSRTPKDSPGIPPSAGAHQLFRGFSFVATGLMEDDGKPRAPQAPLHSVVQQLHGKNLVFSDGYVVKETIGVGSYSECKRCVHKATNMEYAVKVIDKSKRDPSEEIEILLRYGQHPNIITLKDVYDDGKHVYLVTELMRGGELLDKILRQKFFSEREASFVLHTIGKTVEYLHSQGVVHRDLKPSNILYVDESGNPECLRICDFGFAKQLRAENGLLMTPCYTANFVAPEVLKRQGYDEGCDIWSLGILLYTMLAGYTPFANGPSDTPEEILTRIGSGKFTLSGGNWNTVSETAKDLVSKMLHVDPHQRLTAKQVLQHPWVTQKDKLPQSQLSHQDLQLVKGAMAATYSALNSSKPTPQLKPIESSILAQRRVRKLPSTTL

- Ki [1]: 20 nM
- Ki [2]: 120 nM
- Papp B→A at 2 h [3]: 32.4 ×10⁻⁶ cm/s
- Ki [4]: > 2000 nM
- Ki [5]: > 1000 nM
- Ki [6]: > 2000 nM
- Ki [7]: > 2000 nM
- Ki [8]: > 2000 nM
- Ki (Aurora kinase A): > 1000 nM
- Ki [9]: > 1000 nM
- Ki [10]: > 1000 nM
- Ki [11]: > 1000 nM
- Ki [12]: > 1000 nM
- Ki [13]: > 1000 nM
- Ki [14]: > 1000 nM
- Ki [15]: > 1000 nM
- Ki [16]: > 1000 nM
- Ki [17]: > 1000 nM
- Ki [18]: > 1000 nM
- Ki [19]: > 1000 nM
- Ki [20]: > 1000 nM
- Ki [21]: > 1000 nM
- Ki [22]: > 1000 nM
- Ki (Insulin receptor): > 1000 nM
- Ki [23]: > 1000 nM
- Ki [24]: 370 nM
- Ki [25]: 350 nM
- Ki [26]: 430 nM
- Ki [27]: 200 nM
- Ki [28]: > 1000 nM
- Ki [29]: > 1000 nM
- Ki [30]: > 1000 nM
- Ki [31]: > 1000 nM
- Ki [32]: > 1000 nM
- Ki [33]: > 1000 nM
- Ki [34]: > 1000 nM
- Ki [35]: 120 nM
- Ki [36]: 860 nM
- Ki (Angiopoietin-1 receptor): > 1000 nM
- Ki [37]: > 1000 nM
Compound: CNc1cncc(-c2c[nH]c(=O)c(NC(=O)c3ccc(N4CCC[C@H]4CN4CCCC4)cc3)c2)n1
